pIC50: −log10 of the molar value. Values after ≈ are worked out from the molar mass of the structure shown. Read-outs that look alike come from different tables or passages of the source.
Columns and labels:
Solubility in PBS = assay type: physicochemical
Procedure, shortened: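 Steps: ultracentrifuge the peptide PBS solution, inject the supernatant on HPLC, inject a 50 μM peptide DMSO solution as reference, then calculate solubility as area ratio (PBS/DMSO) × 50 uM.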

[1] = biological target: T1, full-length beta-Catenin (Uniprot ID P35222) (Homo sapiens, UniProt P35222); test: Fluorescence polarization IC50 (beta-catenin / 5FAM-TCF4 10-53 competition); assay type: binding
T1 construct: 10 nM full-length beta-Catenin (Uniprot ID P35222)
T1 sequence (P35222 1-781): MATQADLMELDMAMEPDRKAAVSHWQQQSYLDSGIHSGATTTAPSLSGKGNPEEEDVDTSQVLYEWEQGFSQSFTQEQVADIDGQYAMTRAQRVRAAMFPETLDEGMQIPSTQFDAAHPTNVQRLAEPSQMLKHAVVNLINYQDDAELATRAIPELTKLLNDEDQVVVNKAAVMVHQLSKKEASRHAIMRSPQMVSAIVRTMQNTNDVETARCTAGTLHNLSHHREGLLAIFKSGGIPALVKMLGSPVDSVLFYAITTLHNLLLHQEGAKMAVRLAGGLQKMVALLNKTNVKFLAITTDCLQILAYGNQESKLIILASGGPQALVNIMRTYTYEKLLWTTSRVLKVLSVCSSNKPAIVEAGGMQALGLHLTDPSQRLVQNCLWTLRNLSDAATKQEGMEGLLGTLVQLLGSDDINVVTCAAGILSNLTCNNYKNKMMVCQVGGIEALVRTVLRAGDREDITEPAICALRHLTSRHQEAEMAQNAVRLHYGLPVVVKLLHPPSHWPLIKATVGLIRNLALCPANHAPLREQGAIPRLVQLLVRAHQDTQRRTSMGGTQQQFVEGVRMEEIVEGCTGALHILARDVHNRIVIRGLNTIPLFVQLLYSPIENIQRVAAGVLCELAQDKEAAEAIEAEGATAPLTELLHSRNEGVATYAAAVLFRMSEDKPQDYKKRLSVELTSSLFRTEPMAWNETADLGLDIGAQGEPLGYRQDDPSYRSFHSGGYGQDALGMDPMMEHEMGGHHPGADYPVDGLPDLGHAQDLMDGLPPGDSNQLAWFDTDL

CHI Log D procedure = assay type: physicochemical; settings: for CHI Log D: pH 7.4; for chromatographic logD: pH 7.4, CHI Log D
[2] = fluorescence polarization, read-out: beta-Catenin FP IC50
[3] = fluorescence polarization, beta-catenin, read-out: FP EC50

Row | SMILES | Solubility (Solubility in PBS) | pIC50 [1, 2] | pIC50 ([1]; read-out: FP EC50) | CHI Log D (CHI Log D procedure) | pIC50 [1, 3] | chromatographic logD (CHI Log D procedure) | Solubility (Solubility in PBS; Solubility (uM)) | pIC50 ([1]; Table E2-1, read-out: beta-Catenin FP IC50) | pIC50 ([1]; read-out: beta-Catenin FP IC50)
1 | CC(=O)N1CCC[C@]12CC=CCCCC1(CCCC=CCCCCCC[C@@](C)(C(=O)N[C@@H](Cc3ccccc3)C(=O)N[C@@H](Cc3csc4ccccc34)C(=O)N[C@@H](CCC(N)=O)C(N)=O)NC(=O)[C@H](C(C)C)NC(=O)[C@H](Cc3cccc(F)c3F)NC(=O)[C@H](C)NC(=O)[C@H](C)NC(=O)[C@H](CCC(=O)O)NC(=O)[C@H](CC(=O)O)NC1=O)NC(=O)[C@H](C)NC(=O)[C@H](CC(=O)O)NC2=O (stereo partly drawn) [I-390, Ac-PL3-Asp-Ala-B5-Asp-Glu-Ala-Ala-23FF-Val-S8-Phe-BztA-Gln-NH2] | 10 µM (≈ 18.5 µg/mL) | 5.47 |  | 2.587 | 5.47 |  |  |  | 
2 | CC(=O)N1CCC[C@]12CC=CCCCC1(CCCC=CCOC(=O)N(C)CCC[C@@](C)(C(=O)N[C@@H](Cc3cccc(F)c3)C(=O)N[C@@H](Cc3csc4ccccc34)C(=O)N[C@@H](CCC(N)=O)C(N)=O)NC(=O)[C@H](C(C)C)NC(=O)[C@H](Cc3ccccc3)NC(=O)[C@H](C)NC(=O)[C@H](C)NC(=O)[C@H](Cc3c[nH]cn3)NC(=O)[C@H](CC(=O)O)NC1=O)NC(=O)[C@H](C)NC(=O)[C@H](CC(=O)O)NC2=O (stereo partly drawn) [I-398, Ac-PL3-Asp-Ala-B5-Asp-His-Ala-Ala-Phe-Val-SeN-3FF-BztA-Gln-NH2] |  | 5.67 |  |  |  | 1.85 | 46 µM (≈ 86.6 µg/mL) |  | 
3 | CC(=O)N1CCC[C@]12CC=CCCCC1(CCCC=CCCCCCC[C@@](C)(C(=O)N[C@@H](Cc3cccc(F)c3)C(=O)N[C@@H](Cc3csc4ccccc34)C(=O)N[C@@H](CCC(N)=O)C(N)=O)NC(=O)[C@H](C(C)C)NC(=O)[C@H](Cc3ccccc3)NC(=O)[C@H](C)NC(=O)[C@H](C)NC(=O)[C@H](CC(N)=O)NC(=O)[C@H](CC(=O)O)NC1=O)NC(=O)[C@H](C)NC(=O)[C@H](CC(=O)O)NC2=O (stereo partly drawn) [I-382, Ac-PL3-Asp-Ala-B5-Asp-Asn-Ala-Ala-Phe-Val-S8-3FF-BztA-Gln-NH2] | 10 µM (≈ 18.2 µg/mL) |  |  | 2.631 | 5.69 |  |  | 5.69 | 
4 | CC(=O)N1CCC[C@]12CC=CCCCC1(CCCC=CCCCCCC[C@@](C)(C(=O)N[C@@H](Cc3ccccc3)C(=O)N[C@@H](Cc3csc4ccccc34)C(=O)N(C)[C@@H](Cc3cnc[nH]3)C(N)=O)NC(=O)[C@H](CC(N)=O)NC(=O)[C@H](Cc3ccccc3)NC(=O)[C@H](C)NC(=O)[C@H](C)NC(=O)[C@H](CCC(=O)O)NC(=O)[C@H](CC(=O)O)NC1=O)NC(=O)[C@H](CC(C)C)NC(=O)[C@H](CC(=O)O)NC2=O (stereo partly drawn) [I-747, Ac-PL3-Asp-Leu-B5-Asp-Glu-Ala-Ala-Phe-Asn-S8-Phe-BztA-NMeHis-NH2] | 15 µM (≈ 28.4 µg/mL) | 5.62 | 5.62 | 2.492 |  |  |  |  | 
5 | CC(=O)N1CCC[C@]12CC=CCCCC1(CCCC=CCCCOC(=O)N3CC[C@@](C(=O)N[C@@H](Cc4ccccc4Cl)C(=O)N[C@@H](Cc4csc5ccccc45)C(=O)N[C@@H](CCC(N)=O)C(N)=O)(C3)NC(=O)[C@H](CC(N)=O)NC(=O)[C@H](Cc3ccccc3)NC(=O)[C@H](Cc3ccccc3)NC(=O)[C@H](C)NC(=O)[C@H](CN(CC(=O)O)CC(F)(F)F)NC(=O)[C@H](CC(=O)O)NC1=O)NC(=O)[C@H](CC(C)(C)C)NC(=O)[C@H](CC(=O)O)NC2=O (stereo partly drawn) [I-1003, Ac-PL3-Asp-Npg-B5-Asp-TfeGA-Ala-Phe-Phe-Asn-PyrS2-2C1F-BztA-Gln-NH2] | 10 µM (≈ 21.3 µg/mL) |  |  |  |  | 2.54 |  |  | 7.42
6 | CC(=O)N1CCC[C@]12CC=CCCCC1(CCCC=CCCCCCC[C@@](C)(C(=O)N[C@@H](Cc3ccccc3)C(=O)N[C@@H](Cc3csc4ccccc34)C(=O)N[C@H](CO)C(N)=O)NC(=O)[C@H](CCC(N)=O)NC(=O)[C@H](Cc3ccccc3)NC(=O)[C@H](C)NC(=O)[C@H](C)NC(=O)[C@H](CCC(=O)O)NC(=O)[C@H](CC(=O)O)NC1=O)NC(=O)[C@H](C)NC(=O)[C@H](CC(=O)O)NC2=O (stereo partly drawn) [I-493, Ac-PL3-Asp-Ala-B5-Asp-Glu-Ala-Ala-Phe-Gln-S8-Phe-BztA-DSer-NH2] | 50 µM (≈ 90 µg/mL) | 7.06 |  |  |  | 2.2 |  |  | 

The remaining compounds from weak to strong by pIC50 [1, 2], led by results:

Row | Solubility (Solubility in PBS) | pIC50 [1, 2] | pIC50 ([1]; read-out: FP EC50) | CHI Log D (CHI Log D procedure) | pIC50 [1, 3] | chromatographic logD (CHI Log D procedure) | Solubility (Solubility in PBS; Solubility (uM)) | pIC50 ([1]; Table E2-1, read-out: beta-Catenin FP IC50) | pIC50 ([1]; read-out: beta-Catenin FP IC50) | SMILES
7 | 10 µM (≈ 19.1 µg/mL) | 7.06 |  |  |  | 2.62 |  |  |  | CC[C@H](C)[C@@H]1NC(=O)[C@H](CC(=O)O)NC(=O)[C@]2(CC=CCCCC3(CCCC=CCCCCCC[C@@](C)(C(=O)N[C@@H](Cc4ccccc4)C(=O)N[C@@H](Cc4csc5ccccc45)C(=O)N[C@@H](CCCNC(=N)N)C(N)=O)NC(=O)[C@H](CCC(N)=O)NC(=O)[C@H](Cc4ccccc4)NC(=O)[C@H](C)NC(=O)[C@H](C)NC(=O)[C@H](CCC(=O)O)NC(=O)[C@H](CC(=O)O)NC3=O)NC1=O)CCCN2C(C)=O (stereo partly drawn) [I-633, Ac-PL3-Asp-Ile-B5-Asp-Glu-Ala-Ala-Phe-Gln-S8-Phe-BztA-Arg-NH2]
8 | 42 µM (≈ 77.7 µg/mL) | 7.15 | 7.15 | 2.052 |  |  |  |  |  | CC(=O)N1CCC[C@]12CC=CCCCC1(CCCC=CCCCCCC[C@@](C)(C(=O)N[C@@H](Cc3ccccc3)C(=O)N[C@@H](Cc3csc4ccccc34)C(=O)N[C@@H](Cc3cn(C)cn3)C(N)=O)NC(=O)[C@H](CC(N)=O)NC(=O)[C@H](Cc3ccccc3)NC(=O)[C@H](C)NC(=O)[C@H](C)NC(=O)[C@H](CCC(=O)O)NC(=O)[C@H](CC(=O)O)NC1=O)NC(=O)[C@H](C)NC(=O)[C@H](CC(=O)O)NC2=O (stereo partly drawn) [I-478, Ac-PL3-Asp-Ala-B5-Asp-Glu-Ala-Ala-Phe-Asn-S8-Phe-BztA-1MeH-NH2]
9 | 50 µM (≈ 95.5 µg/mL) | 7.26 | 7.26 | 2.171 |  |  |  |  |  | CC(=O)N1CCC[C@]12CC=CCCCC1(CCCC=CCCCCCC[C@@](C)(C(=O)N[C@@H](Cc3ccccc3)C(=O)N[C@@H](Cc3csc4ccccc34)C(=O)N[C@@H](CCC(N)=O)C(N)=O)NC(=O)[C@H](CCC(N)=O)NC(=O)[C@H](Cc3ccccc3)NC(=O)[C@H](C)NC(=O)[C@H](C)NC(=O)[C@H](CCC(=O)O)NC(=O)[C@H](CC(=O)O)NC1=O)NC(=O)[C@H](CC(F)(F)F)NC(=O)[C@H](CC(=O)O)NC2=O (stereo partly drawn) [I-502, Ac-PL3-Asp-F3CA-B5-Asp-Glu-Ala-Ala-Phe-Gln-S8-Phe-BztA-Gln-NH2]
10 | 29 µM (≈ 54.1 µg/mL) | 7.40 | 7.40 | 2.099 |  |  |  |  |  | COc1ccccc1C[C@H](NC(=O)[C@]1(C)CCCCCCC=CCCCC2(CCCC=CC[C@]3(CCCN3C(C)=O)C(=O)N[C@@H](CC(=O)O)C(=O)N[C@@H](C)C(=O)N2)C(=O)N[C@@H](CC(=O)O)C(=O)N[C@@H](CCC(=O)O)C(=O)N[C@@H](C)C(=O)N[C@@H](C)C(=O)N[C@@H](Cc2ccccc2)C(=O)N[C@@H](CC(N)=O)C(=O)N1)C(=O)N[C@@H](Cc1csc2ccccc12)C(=O)N[C@@H](Cc1c[nH]cn1)C(N)=O (stereo partly drawn) [I-511, Ac-PL3-Asp-Ala-B5-Asp-Glu-Ala-Ala-Phe-Asn-S8-2OMeF-BztA-His-NH2]
11 | 28 µM (≈ 49.3 µg/mL) | 7.42 | 7.42 | 2.818 |  |  |  |  |  | CC(=O)N1CCC[C@]12CC=CCCCC1(CCCC=CCCCCCC[C@@](C)(C(=O)N[C@@H](Cc3ccsc3)C(=O)N[C@@H](Cc3csc4ccccc34)C(N)=O)NC(=O)[C@H](CC(N)=O)NC(=O)[C@H](Cc3ccccc3)NC(=O)[C@H](C)NC(=O)[C@H](C)NC(=O)[C@H](CCC(=O)O)NC(=O)[C@H](CC(=O)O)NC1=O)NC(=O)[C@H](CC(C)(C)C)NC(=O)[C@H](CC(=O)O)NC2=O (stereo partly drawn) [I-719, Ac-PL3-Asp-Npg-B5-Asp-Glu-Ala-Ala-Phe-Asn-S8-3Thi-BztA-NH2]

Reference: patent US20240116985A1, “STAPLED PEPTIDES AND METHODS THEREOF” (priority 2020, published 2024)
